Results as given in ChEMBL document CHEMBL1201862, “PubChem BioAssay data set” (2004).
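Test compounds were applied to cells in 96-well plates for 48 hours at 5 doses. Here, GI50 denotes the concentration required for 50% inhibition of growth.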 Activity calls are given as the source filed them. No stated cut-off is given here; in the data, active = GI50 up to about 1.1 µM and inactive = higher.

Legend:
Experiment in all cases: NCI tumour cell line growth inhibition, 48 h
OVCAR-4 = tested on: OVCAR-4
XF498 = tested on: XF498
SNB-75 = tested on: SNB-75
HT-29 = tested on: HT-29
SK-OV-3 = tested on: SK-OV-3
SW-620 = tested on: SW-620
SK-MEL-28 = tested on: SK-MEL-28
DLD-1 = tested on: DLD-1
TK-10 = tested on: TK-10
LOX IMVI = tested on: LOX IMVI
UACC-257 = tested on: UACC-257
NCI-H23 = tested on: NCI-H23
M19-MEL = tested on: M19-MEL
NCI-H460 = tested on: NCI-H460
OVCAR-3 = tested on: OVCAR-3
HCT-116 = tested on: HCT-116
RXF 631 = tested on: RXF 631
KM12 = tested on: KM12
A549 = tested on: A549
SNB-19 = tested on: SNB-19
SF-295 = tested on: SF-295
SK-MEL-2 = tested on: SK-MEL-2
SK-MEL-5 = tested on: SK-MEL-5
UO-31 = tested on: UO-31
IGROV-1 = tested on: IGROV-1
COLO 205 = tested on: COLO 205
Malme-3M = tested on: Malme-3M
CAKI-1 = tested on: CAKI-1
EKVX = tested on: EKVX
KM-20L2 = tested on: KM-20L2
OVCAR-8 = tested on: OVCAR-8
M14 = tested on: M14
HCC 2998 = tested on: HCC 2998
U-251 = tested on: U-251
UACC-62 = tested on: UACC-62
SR = tested on: SR
RXF 393 = tested on: RXF 393
SN12C = tested on: SN12C
DMS-114 = tested on: DMS-114
HCT-15 = tested on: HCT-15
SF-539 = tested on: SF-539
DMS-273 = tested on: DMS-273
NCI-H226 = tested on: NCI-H226
OVCAR-5 = tested on: OVCAR-5
HL-60 = tested on: HL-60
ACHN = tested on: ACHN
LXFL 529 = tested on: LXFL 529
MOLT-4 = tested on: MOLT-4
HOP-92 = tested on: HOP-92
RPMI-8226 = tested on: RPMI-8226
786-0 = tested on: 786-0
HOP-62 = tested on: HOP-62
K562 = tested on: K562
NCI-H522 = tested on: NCI-H522
A498 = tested on: A498
CCRF-CEM = tested on: CCRF-CEM
SNB-78 = tested on: SNB-78
SF-268 = tested on: SF-268

CCN(CC)CCO[Si](OCCN(CC)CC)(OCCN(CC)CC)OCCN(CC)CC was tested, and the GI50 (OVCAR-4) was > 100 µM (inactive), the GI50 (XF498) was > 100 µM (inactive) and the GI50 (SNB-75) was > 100 µM (inactive). The GI50 (HT-29) was > 100 µM (inactive), the GI50 (SK-OV-3) was > 100 µM (inactive) and the GI50 (SW-620) was > 100 µM (inactive). For the same molecule, the GI50 (SK-MEL-28) was > 100 µM (inactive), the GI50 (DLD-1) was > 100 µM (inactive) and the GI50 (TK-10) was > 100 µM (inactive). The GI50 (LOX IMVI) was > 100 µM (inactive), the GI50 (UACC-257) was > 100 µM (inactive) and the GI50 (NCI-H23) was > 100 µM (inactive). For the same molecule, the GI50 (M19-MEL) was > 100 µM (inactive), the GI50 (NCI-H460) was > 100 µM (inactive) and the GI50 (OVCAR-3) was > 100 µM (inactive). The GI50 (HCT-116) was > 10 µM (inactive), the GI50 (RXF 631) was > 100 µM (inactive) and the GI50 (KM12) was > 100 µM (inactive). For the same molecule, the GI50 (A549) was > 100 µM (inactive), the GI50 (SNB-19) was > 100 µM (inactive) and the GI50 (SF-295) was > 100 µM (inactive). For the same molecule, the GI50 (SK-MEL-2) was > 100 µM (inactive), the GI50 (SK-MEL-5) was > 100 µM (inactive) and the GI50 (UO-31) was > 100 µM (inactive). For the same molecule, the GI50 (IGROV-1) was > 100 µM (inactive), the GI50 (COLO 205) was > 100 µM (inactive) and the GI50 (Malme-3M) was > 100 µM (inactive). The GI50 (CAKI-1) was > 100 µM (inactive), the GI50 (EKVX) was > 100 µM (inactive) and the GI50 (KM-20L2) was > 100 µM (inactive). The GI50 (OVCAR-8) was > 100 µM (inactive), the GI50 (M14) was > 100 µM (inactive) and the GI50 (HCC 2998) was > 100 µM (inactive). The GI50 (U-251) was > 100 µM (inactive), the GI50 (UACC-62) was > 100 µM (inactive) and the GI50 (SR) was > 100 µM (inactive). The GI50 (RXF 393) was > 100 µM (inactive), the GI50 (SN12C) was > 100 µM (inactive) and the GI50 (DMS-114) was > 100 µM (inactive). The GI50 (HCT-15) was greater than 100 µM, the GI50 (SF-539) was > 100 µM (inactive) and the GI50 (DMS-273) was > 100 µM (inactive). The GI50 (NCI-H226) was 88.5 µM (inactive) and the GI50 (OVCAR-5) was > 100 µM (inactive).

With O=C(O)c1c([N+](=O)[O-])cc(C(F)(F)F)cc1[N+](=O)[O-] the GI50 (HL-60) was > 100 µM (inactive), the GI50 (OVCAR-4) was > 100 µM (inactive) and the GI50 (XF498) was 35.2 µM (inactive). For the same molecule, the GI50 (ACHN) was > 100 µM (inactive), the GI50 (HT-29) was > 100 µM (inactive) and the GI50 (SW-620) was > 100 µM (inactive). For the same molecule, the GI50 (LXFL 529) was > 100 µM (inactive), the GI50 (SK-MEL-28) was > 100 µM (inactive) and the GI50 (MOLT-4) was > 100 µM (inactive). The GI50 (TK-10) was > 100 µM (inactive), the GI50 (LOX IMVI) was > 100 µM (inactive) and the GI50 (HOP-92) was 74.6 µM (inactive). For the same molecule, the GI50 (RPMI-8226) was > 100 µM (inactive), the GI50 (UACC-257) was > 100 µM (inactive) and the GI50 (786-0) was > 100 µM (inactive). The GI50 (NCI-H23) was > 100 µM (inactive), the GI50 (M19-MEL) was > 100 µM (inactive) and the GI50 (NCI-H460) was > 100 µM (inactive). For the same molecule, the GI50 (OVCAR-3) was > 100 µM (inactive), the GI50 (HOP-62) was > 100 µM (inactive) and the GI50 (K562) was > 100 µM (inactive). For the same molecule, the GI50 (HCT-116) was > 100 µM (inactive), the GI50 (RXF 631) was > 100 µM (inactive) and the GI50 (KM12) was > 100 µM (inactive). The GI50 (A549) was > 100 µM (inactive), the GI50 (SNB-19) was > 100 µM (inactive) and the GI50 (SF-295) was > 100 µM (inactive). For the same molecule, the GI50 (SK-MEL-2) was > 100 µM (inactive), the GI50 (NCI-H522) was > 100 µM (inactive) and the GI50 (SK-MEL-5) was > 100 µM (inactive). The GI50 (UO-31) was > 100 µM (inactive), the GI50 (IGROV-1) was > 100 µM (inactive) and the GI50 (COLO 205) was > 100 µM (inactive). For the same molecule, the GI50 (CAKI-1) was > 100 µM (inactive), the GI50 (EKVX) was > 100 µM (inactive) and the GI50 (KM-20L2) was > 100 µM (inactive). For the same molecule, the GI50 (OVCAR-8) was > 100 µM (inactive), the GI50 (M14) was > 100 µM (inactive) and the GI50 (A498) was > 100 µM (inactive). For the same molecule, the GI50 (CCRF-CEM) was > 100 µM (inactive), the GI50 (U-251) was > 100 µM (inactive) and the GI50 (SR) was > 100 µM (inactive). For the same molecule, the GI50 (RXF 393) was > 100 µM (inactive), the GI50 (SN12C) was > 100 µM (inactive) and the GI50 (HCT-15) was greater than 100 µM. For the same molecule, the GI50 (SF-539) was > 100 µM (inactive), the GI50 (DMS-273) was > 100 µM (inactive) and the GI50 (NCI-H226) was > 100 µM (inactive). The GI50 (SNB-78) was > 100 µM (inactive), the GI50 (SF-268) was > 100 µM (inactive) and the GI50 (OVCAR-5) was > 100 µM (inactive).

In the case of O=C1O[C@H](c2ccccc2)[C@@H]2CC3(CCN12)OCCO3, the GI50 (HL-60) is reported as > 100 µM (inactive), the GI50 (OVCAR-4) is reported as > 100 µM (inactive) and the GI50 (XF498) is reported as > 100 µM (inactive). For the same molecule, the GI50 (ACHN) was > 100 µM (inactive), the GI50 (HT-29) was > 100 µM (inactive) and the GI50 (SW-620) was > 100 µM (inactive). For the same molecule, the GI50 (LXFL 529) was > 100 µM (inactive), the GI50 (SK-MEL-28) was > 100 µM (inactive) and the GI50 (MOLT-4) was > 100 µM (inactive). For the same molecule, the GI50 (TK-10) was > 100 µM (inactive), the GI50 (LOX IMVI) was > 100 µM (inactive) and the GI50 (HOP-92) was 69.2 µM (inactive). For the same molecule, the GI50 (RPMI-8226) was > 100 µM (inactive), the GI50 (UACC-257) was > 100 µM (inactive) and the GI50 (786-0) was > 100 µM (inactive). The GI50 (NCI-H23) was 68.9 µM (inactive), the GI50 (NCI-H460) was > 100 µM (inactive) and the GI50 (OVCAR-3) was > 100 µM (inactive). For the same molecule, the GI50 (HOP-62) was > 100 µM (inactive), the GI50 (K562) was > 100 µM (inactive) and the GI50 (HCT-116) was > 100 µM (inactive). For the same molecule, the GI50 (RXF 631) was > 100 µM (inactive), the GI50 (KM12) was > 100 µM (inactive) and the GI50 (A549) was > 100 µM (inactive). The GI50 (SNB-19) was > 100 µM (inactive), the GI50 (SF-295) was > 100 µM (inactive) and the GI50 (SK-MEL-2) was > 100 µM (inactive). For the same molecule, the GI50 (NCI-H522) was 2.2 µM (inactive), the GI50 (SK-MEL-5) was > 100 µM (inactive) and the GI50 (UO-31) was > 100 µM (inactive). The GI50 (IGROV-1) was > 100 µM (inactive), the GI50 (COLO 205) was > 100 µM (inactive) and the GI50 (CAKI-1) was > 100 µM (inactive). The GI50 (EKVX) was > 100 µM (inactive), the GI50 (KM-20L2) was > 100 µM (inactive) and the GI50 (OVCAR-8) was > 100 µM (inactive). The GI50 (M14) was > 100 µM (inactive), the GI50 (A498) was > 100 µM (inactive) and the GI50 (CCRF-CEM) was > 100 µM (inactive). For the same molecule, the GI50 (U-251) was > 100 µM (inactive), the GI50 (UACC-62) was > 100 µM (inactive) and the GI50 (SR) was > 100 µM (inactive). For the same molecule, the GI50 (RXF 393) was > 100 µM (inactive), the GI50 (SN12C) was > 100 µM (inactive) and the GI50 (HCT-15) was greater than 100 µM. For the same molecule, the GI50 (SF-539) was > 100 µM (inactive), the GI50 (DMS-273) was > 100 µM (inactive) and the GI50 (NCI-H226) was > 100 µM (inactive). The GI50 (SF-268) was > 100 µM (inactive) and the GI50 (OVCAR-5) was > 100 µM (inactive).
